Laboratory results published in patent publication US10722503B2, “Glitazones for topical application” (priority 2017, dated 2020).

Key:
keratosis pilaris (KP) = assay: Topical treatment of keratosis pilaris (KP) in patients, severity grading; assay type: in vivo, human; settings: formulation similar to that of Example 1, glitazone substituted for pioglitazone
From the text: Prior to treatment, the severity of the KP condition was graded. […]

SEB-1 sebocytes = assay: In vitro treatment of cultured sebocytes, intracellular lipids (ADIPORED fluorescence normalized to DAPI cell count); assay type: cell-based; settings: formulation similar to that of Example 1, glitazone substituted for pioglitazone
Procedure: Cultured SEB-1 sebocytes (Xia et al., Dermato-Endocrinology, 1(2):92-95 (2009)) were treated with the pioglitazone formulation of Example 1. Sebocytes were cultured in 96 wells plates (2500 cells/well), until confluency. Plates were washed twice with warm sterile PBS and then incubated (at 37° C. and 5% CO2) for another 48 hours after treating them with the pioglitazone formulation in treatment media. After 48 hours, media was carefully removed from the plates and, after washing with PBS, ADIPORED™ reagent (Lonza Walkersville, Inc., Walkersville, Md.) was carefully added into each well. The plates were read for intracellular lipids using a spectrofluorometer. The lipid fluorescence was normalized against the total cell count that was performed using DAPI staining. Following treatment, the lipid content in the treated sebocytes was determined to have increased by 27% compared to control untreated sebocytes. The increased lipid content was confirmed by determining the expression of SREBP-1, a lipid synthesis transcription factor.

Compound	results of Examples 2 and 3 (KP treatment) repeated with another glitazone formulation (keratosis pilaris (KP))	results of Example 4 (sebocyte lipid content) repeated with another glitazone formulation (SEB-1 sebocytes)
COc1ccc2nc(COc3ccc(CC4SC(=O)NC4=O)cc3)n(C)c2c1 (stereo not drawn) [rivoglitazone]	Results similar to those obtained in Examples 2 to 4 using pioglitazone	Results similar to those obtained in Examples 2 to 4 using pioglitazone
O=C1NC(=O)C(Cc2ccc3cc(OCc4ccccc4F)ccc3c2)S1 (stereo not drawn) [netoglitazone]	Results similar to those obtained in Examples 2 to 4 using pioglitazone	Results similar to those obtained in Examples 2 to 4 using pioglitazone
COc1ccc(Oc2cc(N(C)CCOc3ccc(CC4SC(=O)NC4=O)cc3)ncn2)cc1 (stereo not drawn) [lobeglitazone]	Results similar to those obtained in Examples 2 to 4 using pioglitazone	Results similar to those obtained in Examples 2 to 4 using pioglitazone
